These results are taken from US20040081626A1, “Inhalation particles” (priority 1999, published 2004).

What all share (assay type): physicochemical
Series [1] is described as follows: Particle size analysis by electrical low pressure impactor (ELPI), measured gravimetrically. Conditions: mass size distribution, dilution ratio 1:10. As to the method:
Referring now to FIG. 1b, the particle size distribution was measured by an electrical low pressure impactor (12) (ELPI) connected to a vacuum (13). The particles exiting the tubular tube were passed into a diluter (10), with a dilution ratio of 1:10, before entering the ELPI. Exhaust gas exit (11) was arranged in the diluter. To minimize temperature gradient, and thus to reduce the moisture condensation, the diluter, the line to the diluter and the gas line into the diluter were layered with heating elements, which were kept at a temperature higher than that of the solution dew point. […] It is shown that a narrow size distribution within the range of aerodynamic particle size of interest, i.e. at around 1-5 μm, was obtained.

The nature of series [2]: Particle crystallinity and polymorphism analysis by X-ray powder diffraction. Conditions: for FWHMav: broadening of diffraction maxima positioned at 11.3° and 18.4°. As to the method:
Crystallinity and polymorphism of the sample was studied by X-ray powder diffraction (Diffractometer D500, Siemens GmbH, Karlsruhe, Germany). A copper target X-ray (wavelength 0.1541 nm) tube was operated with the power of 40 kV×40 mA. For x-ray powder diffraction analysis, 10 mg of the sample was mounted to a specific cylindrical single crystal mini sample stage, which has a diameter of 10 mm and height of approximately 1 mm. […] The patterns obtained were identical. There were not significant differences in peak positions and additional peaks were not observed. […] The relative degree crystallinity of the powder was also determined based on the x-ray powder diffraction patterns. It is noticed that the powder was well crystallised. The maximum intensities were sharp and well above background intensities. The estimation was based on the broadening of the diffraction maxima (FWHM-values) positioned at 11.3° and 18.4°. It is seen that the relative degree of crystallinity of the powder is 21% higher than that of the reference powder.

A short description of series [3]: Particle shape and surface structure by FE-SEM. Particulars: 2 kV. An excerpt:
Referring now to FIG. 1c, individual particles were collected on the surface of a holey carbon film TEM grid (14) connected to a vacuum (15) after particle collection. The morphology of the particles were then imaged using a field emission low voltage scanning electron microscope (FE-SEM) operated at 2 kV acceleration voltage. FIGS. 4a to 4d are scanning electron microscope images of the powder (magnification ×20000 in FIGS. 4b, 4c, 4d and ×23000 in FIG. 4a).

For `CCC(=O)OCC(=O)[C@@]1(OC(=O)CC)[C@@H](C)C[C@H]2[C@@H]3CCC4=CC(=O)C=C[C@]4(C)[C@@]3(Cl)[C@@H](O)C[C@@]21C` [Obtained beclomethasone dipropionate powder], the “aerodynamic particle size distribution” value in series [1] is given as 1-5 μm. The same compound showed an FWHMav in series [2] of 0.26 °. The polymorphism entry in series [2] (diffraction pattern compared to reference beclomethasone dipropionate powder) is given as “polymorphic crystal form class I”. In series [3], the particle diameter is recorded as 2-3 μm; the “particle shape and surface structure” value is “spherical with rough surfaces”.

For the compound `CCC(=O)OCC(=O)[C@@]1(OC(=O)CC)[C@@H](C)C[C@H]2[C@@H]3CCC4=CC(=O)C=C[C@]4(C)[C@@]3(Cl)[C@@H](O)C[C@@]21C` [Reference powder, beclomethasone dipropionate, reference compound], in series [2], the FWHMav came to 0.33 °.
